Assay results from patent US20160199407A1, “HALIDES IN THE TREATMENT OF PATHOGENIC INFECTION” (THE UNIVERSITY OF IOWA RESEARCH FOUNDATION, priority 2008, published 2016).
Entries after “also recorded” stand apart in the source; their conditions may differ. Where two headings read alike, the source gives them in different places.

How the values were obtained:
[1] = I^− accumulation in airway surface fluid after oral KI intake
human AEC = test: HOI generation by AEC, fluorescein absorbance at 508 nm; type: cell-based; settings: apical ATP (100 μM), I^− (400 μM), LPO (9 μg/ml), fluorescein (16 μM), 3 hours
S. aureus = S. aureus killing on airway epithelial cell cultures with LPO and I^− or SCN^−; type: cell-based
primary airway epithelia = settings: cited from earlier work
M. haemolytica = M. haemolytica killing by AEC cultures; type: cell-based
H. influenzae = H. influenzae (NTHi) killing on airway epithelial cell cultures with LPO and I^− or SCN^−; type: cell-based
eukaryotic cells = settings: HOI: at bactericidal concentrations; cited from earlier work
[2] = test system: influenza A (H1N1, A/PR/8/34); type: cell-based; settings: pH 6.5
A2 strain of RSV = test: Cell free exposure of RSV to Duox/LPO system components, then titering; settings: 5 min
[3] = test system: adenovirus expressing eGFP; test: In situ inactivation of adenovirus on AEC; settings: porcine airway epithelia, 50 MOI, ATP (100 μM), 6.5 mg/mL LPO, NaI, PBS pH 6.5
adenovirus (serotype 5) = test: In vitro (cell free) inactivation of adenovirus expressing eGFP; settings: 5 min exposure, readout 24 hr later
SARS-CoV (Urbani strain) = type: cell-based; settings: human airway epithelia, 5 MOI, ATP (100 μM), 6.5 mg/mL LPO, NaI, pH 6.5, 24 hr

## [I-].[K+] [KI, potassium iodide]
[1]; 8 hours after oral 130 mg KI
  Airway surface fluid I^− concentration relative to serum I^− level: more than 50 fold
[1]; oral 130 mg KI
  Sufficiency to achieve the airway surface fluid I^− level (10-50 μM) necessary for HOI-mediated elimination of bacteria and viruses: more than sufficient
  Time the high airway surface fluid I^− concentration was maintained: several hours
[1]; two hours after oral KI tablet (130 mg), human subject
  I^− concentration in airway surface fluid: ~200 µM

## I [I^−, iodide]
Human AEC
  HOI production by AEC: can support HOI production
S. aureus; 50 and 200 μM I^−, LPO (7 μg/ml), epithelial cells, 1000 CFU, 3 hrs
  Bacterial survival (S. aureus): No surviving bacteria
S. aureus; AEC cultures, data not shown
  I^− concentration supporting complete elimination of S. aureus: 50 µM
S. aureus; LPO, airway epithelia, 3 hr
  I^− concentration at which numbers of surviving S. aureus were lower: ≥ 10 µM
  I^− concentration giving complete eradication of bacteria (S. aureus): 50 to 200 µM
Primary airway epithelia
  Basolateral concentration above which primary airway epithelia secrete the anion: higher than 1 μM
M. haemolytica
  Elimination of M. haemolytica in the presence of I^− as compared to SCN^−: more effective
  Susceptibility of M. haemolytica to supported antibacterial activity: susceptible
M. haemolytica; LPO and 250 μM I^−, 3 hours
  Bacterial survival (M. haemolytica): No surviving bacteria
H. influenzae; 200 and 500 μM I−, LPO (7 μg/ml), epithelial cells, 1000 CFU, 3 hrs
  Bacterial survival (H. influenzae): No surviving bacteria
H. influenzae; LPO present, catalase absent, data not shown
  I^− concentration sufficient to support strong NTHi-killing activity of AEC: ≤ 50 µM
H. influenzae; LPO, airway epithelia, 3 hr
  I^− concentration at which numbers of surviving H. influenzae were lower: ≥ 10 µM
  I^− concentration giving complete eradication of bacteria (H. influenzae): 50 to 200 µM

## N#CSO [OSCN^−, hypothiocyanite, reference compound]
Eukaryotic cells
  Toxicity to eukaryotic cells: not toxic
[2]
  Influenza viral antigen (NS1): dose dependent decrease
A2 strain of RSV; PBS
  Virucidal effects on RSV: minimal virucidal effects
H. influenzae; AEC cultures, data not shown
  Susceptibility of NTHi: resistant
H. influenzae; airway epithelia, LPO
  Bactericidal activity against H. influenzae: ineffective

## N#CS [SCN^−, thiocyanate, reference compound]
S. aureus; AEC cultures, data not shown
  SCN^− concentration necessary for killing of S. aureus: > 120 µM
Primary airway epithelia; Moskwa, 2007
  Rate of apical-to-basolateral leakage: < 10 %/hour
Primary airway epithelia; published data
  Basolateral concentration above which primary airway epithelia secrete the anion: > 5 µM
M. haemolytica
  Susceptibility of M. haemolytica to supported antibacterial activity: susceptible
M. haemolytica; 250 μM SCN^−, 3 hours
  Killing of M. haemolytica: supported killing
H. influenzae; LPO, epithelial cells, 3 hrs, 500 μM SCN^− controls
  SCN− in place of I^− in the oxidative mechanism eliminating H. influenzae: cannot replace I^−

## OI [HOI]
Eukaryotic cells
  Toxicity to eukaryotic cells: not toxic
[2]
  Influenza viral antigen (NS1): dose dependent decrease
S. aureus; airway epithelia, LPO
  Efficiency of HOI producing system against S. aureus versus OSCN^− producing mechanism: more efficient
[3]
  Adenovirus inactivation on airway epithelia (GFP expression): sufficient H2O2 to support; also recorded: dose dependent decrease
A2 strain of RSV
  Solution pH at which antiviral effect against RSV was most marked: ≤ 6.5
A2 strain of RSV; PBS
  Drop in RSV titer: 5 log
Adenovirus (serotype 5)
  Adenovirus inactivation (eGFP expression in transduced A549 cells): inactivated; also recorded: dose-dependent decrease
H. influenzae; airway epithelia, LPO
  Bactericidal activity against H. influenzae: strong bactericidal activity
SARS-CoV (Urbani strain)
  SARS-CoV inactivation (N gene product immunoreactivity): sufficient H2O2 to support; also recorded: marked reduction
